US11590116B2 (THERAVANCE BIOPHARMA R&D IP, LLC, priority 2019, dated 2023)

Tests used:
[1] = molecular target: T1, recombinant human ALK5 (TGF-βR1) protein (Homo sapiens, UniProt P36897); assay: Biochemical ALK5 (TGF-βR1) assay to measure pKi (LANCE Ultra ULight kinase assay); conditions: apparent pKi from pIC50 by Cheng-Prusoff, read-out: ALK5 pKi (converted)
T1 construct: purchased Life Technologies PR9075A
T1 sequence (P36897 34-503): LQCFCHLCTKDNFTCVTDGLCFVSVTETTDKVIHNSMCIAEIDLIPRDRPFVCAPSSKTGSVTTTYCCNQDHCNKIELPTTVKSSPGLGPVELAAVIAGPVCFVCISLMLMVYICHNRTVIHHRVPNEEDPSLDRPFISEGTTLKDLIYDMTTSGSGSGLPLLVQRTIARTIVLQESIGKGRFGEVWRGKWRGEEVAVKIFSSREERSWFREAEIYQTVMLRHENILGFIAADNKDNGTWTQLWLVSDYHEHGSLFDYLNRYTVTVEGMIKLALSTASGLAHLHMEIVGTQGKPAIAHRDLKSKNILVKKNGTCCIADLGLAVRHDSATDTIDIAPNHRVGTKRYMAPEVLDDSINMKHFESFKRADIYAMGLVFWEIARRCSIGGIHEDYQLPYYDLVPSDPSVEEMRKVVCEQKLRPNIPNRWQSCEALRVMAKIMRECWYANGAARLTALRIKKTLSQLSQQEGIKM
In short: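 Compounds (10 μM to 25 pM) were preincubated 60 min at room temperature with enzyme, then reactions were started with ATP (125 μM stock, 5× final) and run 60 min at 37 °C. EDTA-containing Eu-anti-phospho-Topo IIα (Thr1342) antibody stopped the reaction; TR-FRET read at 665 nm. pIC50 from 4-parameter fit, converted to pKi via Cheng-Prusoff.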

[2] = system: TGF-β-stimulated SMAD3 phosphorylation in BEAS-2B cells; assay: Cellular ALK5 potency assay, inhibition of TGF-β stimulated pSMAD3 formation in BEAS-2B cells; format: cell-based; conditions: Homo sapiens; inhibition of TGF-β stimulated pSMAD3 formation, BEAS-2B cells; read-out: BEAS2B pIC50 (converted)
In short: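 BEAS-2B human lung epithelial cells, seeded overnight, were pre-treated with compound in HBSS/25 mM HEPES/1% BSA for 1 h at 37 °C, then stimulated with TGF-β (final 10 ng/mL) for 30 min. Lysates were assayed for pSMAD3 by AlphaLISA; pIC50 came from dose-dependent signal change versus TGF-β-stimulated untreated cells.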

Compound | Ki [1] | IC50 [2]
Cc1cccc(-c2[nH]cnc2-c2ccc3ncc(-c4ccc(C(=O)OC[C@@H]5CCCCN5)cn4)cc3c2)n1 [Compound 1165, [(2S)-2-piperidyl]methyl 6-[6-[5-(6-methyl-2-pyridyl)-1H-imidazol-4-yl]-3-quinolyl]pyridine-3-carboxylate] | 0.0398 to 0.316 nM | 25.1 to 158 nM
Cc1cccc(-c2[nH]cnc2-c2ccc3ncc(C(=O)O[C@H]4CCNC4)cc3c2)n1 [Compound 757, [(3S)-pyrrolidin-3-yl] 6-[5-(6-methyl-2-pyridyl)-1H-imidazol-4-yl]quinoline-3-carboxylate] | 0.398 to 3.16 nM | 25.1 to 158 nM
COC(Cc1ccnc2ccc(-c3c[nH]nc3-c3cccc(C)n3)nc12)OC [Compound 860, 8-(2,2-dimethoxyethyl)-2-[3-(6-methyl-2-pyridyl)-1H-pyrazol-4-yl]-1,5-naphthyridine] | 0.398 to 3.16 nM | 25.1 to 158 nM
COC(=O)N1CCc2nnc(-c3cnc4ccc(-c5c[nH]nc5-c5ccc(F)c(C)n5)nc4c3)cc2C1 [Compound 303, methyl 3-[6-[3-(5-fluoro-6-methyl-2-pyridyl)-1H-pyrazol-4-yl]-1,5-naphthyridin-3-yl]-7,8-dihydro-5H-pyrido[4,3-c]pyridazine-6-carboxylate] | 0.0398 to 0.316 nM | 25.1 to 158 nM
Cc1nc(-c2n[nH]cc2-c2ccc3ncc(-c4nc5c([nH]4)CCNCC5)cc3n2)ccc1F [Compound 611, 2-[6-[3-(5-fluoro-6-methyl-2-pyridyl)-1H-pyrazol-4-yl]-1,5-naphthyridin-3-yl]-1,4,5,6,7,8-hexahydroimidazo[4,5-d]azepine] | < 0.0316 nM | 1580 to 10000 nM
CNCCn1cc(-c2cnc3ccc(-c4c[nH]nc4-c4ccc(F)c(C)n4)cc3c2)cn1 [Compound 634, 2-[4-[6-[3-(5-fluoro-6-methyl-2-pyridyl)-1H-pyrazol-4-yl]-3-quinolyl]pyrazol-1-yl]-N-methyl-ethanamine] | < 0.0316 nM | < 20 nM
Cc1cccc(-c2n[nH]cc2-c2ccc3ncc(-c4cnc(O)nc4)cc3n2)n1 [Compound 69, 5-[6-[3-(6-methyl-2-pyridyl)-1H-pyrazol-4-yl]-1,5-naphthyridin-3-yl]pyrimidin-2-ol] | 0.0398 to 0.316 nM | 1580 to 10000 nM
Cc1cccc(-c2n[nH]cc2-c2ccc3nccc(N(C)CCCN4CCOCC4)c3n2)n1 [Compound 848, N-methyl-6-[3-(6-methyl-2-pyridyl)-1H-pyrazol-4-yl]-N-(3-morpholinopropyl)-1,5-naphthyridin-4-amine] | 0.0398 to 0.316 nM | 200 to 1260 nM
Cc1cccc(-c2[nH]cnc2-c2ccc3ncc(C4=CCC(C(=O)O[C@@H]5CCNC5)CC4)cc3c2)n1 (stereo partly drawn) [Compound 49, [(3R)-pyrrolidin-3-yl] 4-[6-[5-(6-methyl-2-pyridyl)-1H-imidazol-4-yl]-3-quinolyl]cyclohex-3-ene-1-carboxylate] | 0.0398 to 0.316 nM | 25.1 to 158 nM
Cc1cccc(-c2[nH]ncc2-c2ccc3ncc(C(=O)OCCCC4CCNCC4)cc3c2)n1 [Compound 1182, 3-(4-piperidyl)propyl 6-[5-(6-methyl-2-pyridyl)-1H-pyrazol-4-yl]quinoline-3-carboxylate] | 0.0398 to 0.316 nM | 25.1 to 158 nM
Cc1cccc(-c2[nH]cnc2-c2ccc3ncc(C4=CCN(C(=O)C5CCNCC5)CC4)cc3c2)n1 [Compound 778, [4-[6-[5-(6-methyl-2-pyridyl)-1H-imidazol-4-yl]-3-quinolyl]-3,6-dihydro-2H-pyridin-1-yl]-(4-piperidyl)methanone] | 0.0398 to 0.316 nM | 25.1 to 158 nM
CNCCn1cc(-c2cnc3ccc(-c4c[nH]nc4-c4cccc(C)n4)nc3c2)cn1 [Compound 487, N-methyl-2-[4-[6-[3-(6-methyl-2-pyridyl)-1H-pyrazol-4-yl]-1,5-naphthyridin-3-yl]pyrazol-1-yl]ethanamine] | < 0.0316 nM | < 20 nM
Cc1cccc(-c2n[nH]cc2-c2ccc3ncc(N(C)C4CCN(C(C)C)C4)cc3n2)n1 (racemic) [Compound 503, N-methyl-6-[3-(6-methyl-2-pyridyl)-1H-pyrazol-4-yl]-N-[rac-(3R)-1-isopropylpyrrolidin-3-yl]-1,5-naphthyridin-3-amine] | < 0.0316 nM | 25.1 to 158 nM
Cc1cccc(-c2n[nH]cc2-c2ccc3ncc(N4CCC(N)CC4)cc3n2)n1 [Compound 316, 1-[6-[3-(6-methyl-2-pyridyl)-1H-pyrazol-4-yl]-1,5-naphthyridin-3-yl]piperidin-4-amine] | < 0.0316 nM | 25.1 to 158 nM
Cc1cccc(-c2[nH]ncc2-c2ccc3ncc(C(=O)OCCN4C[C@@H](C)N[C@@H](C)C4)cc3c2)n1 [Compound 1238, 2-[(3S,5R)-3,5-dimethylpiperazin-1-yl]ethyl 6-[5-(6-methyl-2-pyridyl)-1H-pyrazol-4-yl]quinoline-3-carboxylate] | 0.0398 to 0.316 nM | 25.1 to 158 nM
Cc1cccc(-c2[nH]cnc2-c2ccc3ncc(N4CC[C@@H](N)C4)cc3c2)n1 [Compound 13, (3R)-1-[6-[5-(6-methyl-2-pyridyl)-1H-imidazol-4-yl]-3-quinolyl]pyrrolidin-3-amine] | 0.0398 to 0.316 nM | < 20 nM
Cc1nc(-c2nc3ccccn3c2-c2ccc3ncc(N4CCCNCC4)cc3n2)ccc1F [Compound 84, 7-(1,4-diazepan-1-yl)-2-[2-(5-fluoro-6-methyl-2-pyridyl)imidazo[1,2-a]pyridin-3-yl]-1,5-naphthyridine] | 0.0398 to 0.316 nM | 25.1 to 158 nM
Cc1cccc(-c2[nH]cnc2-c2ccc3ncc(N4CC5(CCCNC5)C4)cc3c2)n1 [Compound 159, 3-(2,8-diazaspiro[3.5]nonan-2-yl)-6-[5-(6-methyl-2-pyridyl)-1H-imidazol-4-yl]quinoline] | < 0.0316 nM | < 20 nM

More lines, main results first:

Ki [1] | Compound | IC50 [2]
0.0398 to 0.316 nM | CC(C)N1CCN(CCNc2cnc3ccc(-c4c[nH]nc4-c4cccc(C(F)(F)F)n4)nc3c2)CC1 [Compound 201, N-(2-(4-isopropylpiperazin-1-yl)ethyl)-6-(3-(6-(trifluoromethyl)pyridin-2-yl)-1H-pyrazol-4-yl)-1,5-naphthyridin-3-amine] | 25.1 to 158 nM
< 0.0316 nM | Cc1cccc(-c2nc3ccccn3c2-c2ccc3ncc(-c4cnc5n4CCN5)cc3n2)n1 [Compound 23, 7-(6,7-dihydro-5H-imidazo[1,2-a]imidazol-3-yl)-2-[2-(6-methyl-2-pyridyl)imidazo[1,2-a]pyridin-3-yl]-1,5-naphthyridine] | 25.1 to 158 nM
0.0398 to 0.316 nM | Cc1cccc(-c2[nH]cnc2-c2ccc3ncc(NCCC4CNC4)cc3c2)n1 [Compound 116, N-[2-(azetidin-3-yl)ethyl]-6-[5-(6-methyl-2-pyridyl)-1H-imidazol-4-yl]quinolin-3-amine] | 25.1 to 158 nM
< 0.0316 nM | Cc1cccc(-c2n[nH]cc2-c2ccc3ncc(-c4cccc(C(=O)O)c4)cc3n2)n1 [Compound 172, 3-[6-[3-(6-methyl-2-pyridyl)-1H-pyrazol-4-yl]-1,5-naphthyridin-3-yl]benzoic acid] | 1580 to 10000 nM
< 0.0316 nM | Cc1cccc(-c2[nH]cnc2-c2ccc3ncc(C4=CCN(C(C)C)C4)cc3c2)n1 [Compound 319, 3-(1-isopropyl-2,5-dihydropyrrol-3-yl)-6-[5-(6-methyl-2-pyridyl)-1H-imidazol-4-yl]quinoline] | 25.1 to 158 nM
0.0398 to 0.316 nM | Cc1cccc(-c2[nH]cnc2-c2ccc3ncc(C(=O)OCCN4CCNCC4)cc3c2)n1 [Compound 756, 2-(piperazin-1-yl)ethyl 6-(5-(6-methylpyridin-2-yl)-1H-imidazol-4-yl)quinoline-3-carboxylate] | 25.1 to 158 nM
0.0398 to 0.316 nM | Cc1cccc(-c2nc3ccccn3c2-c2ccc3ncc(N4CCNCC4)cc3n2)n1 [Compound 473, 2-[2-(6-methyl-2-pyridyl)imidazo[1,2-a]pyridin-3-yl]-7-piperazin-1-yl-1,5-naphthyridine] | 25.1 to 158 nM
0.0398 to 0.316 nM | Cc1nc(-c2nc3ccccn3c2-c2ccc3ncc(N4CCC(N(C)C)C4)cc3c2)ccc1F (racemic) [Compound 544, rac-(3S)-1-[6-[2-(5-fluoro-6-methyl-2-pyridyl)imidazo[1,2-a]pyridin-3-yl]-3-quinolyl]-N,N-dimethyl-pyrrolidin-3-amine] | 25.1 to 158 nM
0.0398 to 0.316 nM | Cc1cccc(-c2nnn(Cc3ccccc3)c2-c2ccc3ncc(NCCN4CCN(C(C)C)CC4)cc3c2)n1 [Compound 584, 6-[3-benzyl-5-(6-methyl-2-pyridyl)triazol-4-yl]-N-[2-(4-isopropylpiperazin-1-yl)ethyl]quinolin-3-amine] | 200 to 1260 nM
0.0398 to 0.316 nM | Cc1nc(-c2nc3ccccn3c2-c2ccc3ncc(NCCN4CCN(C(C)C)CC4)cc3n2)ccc1F [Compound 290, 6-[2-(5-fluoro-6-methyl-2-pyridyl)imidazo[1,2-a]pyridin-3-yl]-N-[2-(4-isopropylpiperazin-1-yl)ethyl]-1,5-naphthyridin-3-amine] | 25.1 to 158 nM
